The record followed here is patent US20250040554A1, “NEW USES OF PHENMEDIPHAM AND HERBICIDAL COMBINATIONS COMPRISING PHENMEDIPHAM” (BAYER AKTIENGESELLSCHAFT, priority 2021, published 2025).

Data set [1] deals with soybean (Glycine max, GLXMA). Nature of the data set: Greenhouse selectivity trial, post-emergence, soybean. The format is in vivo. The conditions noted are these: 8 DAA. The text has this:
(§1) The respective (combinations of) materials were applied to weed plants in the greenhouse or in the field at the respective growth stage indicated hereinafter for the different weed species mentioned below. The respective (combinations of) active ingredients were also applied to corn, cotton and soybean crop plants, and the selectivity (damage) in these crop plants rated (assessed).
(§2) Visual scoring of the damage to the trial plants took place after the time mentioned in the respective Table—indicated in number of Days After Application (DAA). Damage and development of all above-ground parts of the respective plants was recorded. Visual rating was done on a percentage scale in relation to the untreated control (100%=all plants dead; 50%=green plant biomass reduced by 50%, and 0%=no discernible difference=like control plot).
(§3) The trials in the greenhouse were sprayed with an application volume of 300 L/ha with an automated track sprayer. The plots in the field were sprayed with an application volume of 140 L/ha with a hand held spray boom.
(§4) In greenhouse selectivity trials and trials herbicidal activity trials against weed plants were investigated in post-emergence application of the respective material(s).
(§5) Phenmedipham was applied at varying application rates (Dose Rate) to the crop plants of corn (Zea mays subsp. amylacea, ZEAMA), soybean (Glycine max, GLXMA) and cotton (Gossypium hirsutum, GOSHI) at a BBCH growth stage of the plants of BBCH 13 and the crop safety (crop injury, damage) assessed. The results are shown in Table 1 as the % damage when assessed 8 days after application (8 DAA).
(§6) In all the selectivity trials of Table 1 the adjuvant Mero® (rapeseed oil methyl ester) was added to the respective spray mixture in an amount corresponding to 1 L/ha.

Data set [2] deals with soybean (GLXMA). The data set is described as follows: Damage in soybean in the field trials of Tables 4a to 4e. Type of data set: in vivo, Glycine max. Particulars: PMP applied to GLXMA at growth stage BBCH 14, field trials of Tables 4a to 4e, each case. The method, then:
In the field trials of Tables 4a to 4e also the damage in soybean was assessed when PMP was applied to GLXMA at growth stage BBCH 14. The damage observed in each case was agronomically acceptable, i.e. below 15%.

For data set [3], the system named is cotton (Gossypium hirsutum, GOSHI). Nature of the data set: Greenhouse selectivity trial, post-emergence, cotton. Particulars: 8 DAA. Type of data set: in vivo.
Text: as §1, §2, §3, §4, §5, §6

For data set [4], the system named is corn (Zea mays subsp. amylacea, ZEAMA). The data set is described as follows: Greenhouse selectivity trial, post-emergence, corn. Type of data set: in vivo. Particulars: 8 DAA.
Text: as §1, §2, §3, §4, §5, §6

As to `COC(=O)Nc1cccc(OC(=O)Nc2cccc(C)c2)c1` [PMP, 3-[(methoxyformyl)amino]phenyl (3-methylphenyl)carbamate], the “% damage GLXMA (soybean)” value in data set [1] (12.5 g/ha) came to 2%; in data set [1] (25 g/ha), 3%; in data set [1] (75 g/ha) it was 0%; in data set [1] (125 g/ha) it was 5%; in data set [1] (200 g/ha) it was 18%; in data set [1] (300 g/ha) it was 20%. Also, in data set [2], the damage in soybean entry is reported as “below 15%”. Also, the “% damage GOSHI (cotton)” value is recorded as 0% in data set [3] (12.5 g/ha); 0% in data set [3] (25 g/ha); 3% in data set [3] (75 g/ha); 6% in data set [3] (125 g/ha); 6% in data set [3] (200 g/ha); 14% in data set [3] (300 g/ha). Moreover, the “% damage ZEAMA (corn)” value in data set [4] (12.5 g/ha) turned out to be 0%; in data set [4] (25 g/ha), 0%; in data set [4] (75 g/ha) it was 7%; in data set [4] (125 g/ha) it was 0%; in data set [4] (200 g/ha), 15%; in data set [4] (300 g/ha) it was 30%.
